Results on 1 molecule are retold here after patent EP0226985A2, “Method and reagent for determining testosterone as well as a monoclonal antibody suitable for this” (BOEHRINGER MANNHEIM GMBH, priority 1985, dated 1987).

The test system of experiment [1] is monoklonaler Antikörper MAK 160 (von Klon 160, ECACC 85 12 1701) gegen Testosteron. In words: Cross-reaction with other steroids, competitive ELISA on plates coated with Testosteron-3-carboxymethyloxim-RSA. Type of experiment: binding, Maus. Conditions: calculated from C = antigen concentration needed to reach 50 % of the maximum signal, relative to Testosteron. The procedure: (§1) Um die Anwesenheit und Spezifität von Antikörpern gegen Testosteron im Serum immunisierter Mäuse oder in dem Kulturüberstand der Hybridzellen oder in Ascites zu erkennen, wird ein ELISA-Verfahren als Testprinzip verwendet: Mikrotiterplatten werden mit 1 /ug Testosteron-3-carboxymethyloxim-RSA/ml Beschichtungspuffer (0,2 M Natriumcarbonat/-Bicarbonat, pH 9,3-9,5) bei 37° C eine Stunde lang beschichtet. Es wird 10 Minuten mit 0,9 % Natriumchloridlösung und 1 % Albuminlösung nachbehandelt. Anschließend wird mit 0,9 % Natriumchloridlösung gewaschen. Danach wird bei 37° C eine Stunde mit 100 /ul Probe inkubiert und erneut mit 0,9 % Natriumchloridlösung gewaschen. Um eine mögliche Kreuzreaktion mit anderen Steroiden zu prüfen, werden der Probelösung 100 µg - 1 /ug/ml des zu prüfenden Steroids zugesetzt. Eine Erniedrigung des Meßsignals in Gegenwart anderer Steroide bedeutet Kreuzreaktion. Es folgt eine weitere Inkubation (eine Stunde, 37° C) mit 450 mU/ml eines Schaf-Fabanti-- Maus-Fcγ-Peroxidase-Konjugats. Nach einem erneuten Waschschritt mit 0,9 % Natriumchlorid wird die Peroxidaseaktivität in üblicher Weise bestimmt (beispielsweise mit ABTS, 30 Minuten bei Raumtemperatur, abgelesen wird die Extinktionsdifferenz, Δ mE, bei 405 nm).
(§2) Der Test wird, wie in Beispiel 2 beschrieben, durchgeführt. […]

The test system of experiment [2] is monoklonaler Antikörper MAK 97 (von Klon 97, ECACC 85 12 1702) gegen Testosteron. Described as above. Conditions: calculated from C = antigen concentration needed to reach 50 % of the maximum signal, relative to Testosteron. The format is binding, Maus. The procedure:
as §1, §2

Consider `C[C@]12CCC(=O)C[C@@H]1CC[C@@H]1[C@@H]2CC[C@]2(C)[C@@H](O)CC[C@@H]12` [5α-Dihydrotestosteron], for which the entries for the “Kreuzreaktion in % mit” value in experiment [1] and in experiment [2] were 4% and 5%, respectively.
